Assays:
Plasmodium falciparum [1] = experiment: microbe, parasite or virus in culture; settings: 72 h
Description: Antimalarial activity against chloroquine resistant Plasmodium falciparum clinical isolate GB4 assessed as inhibition of growth incubated for 72 hrs by SYBR green I based assay

Histone deacetylase 3 = Histone deacetylase 3 (Homo sapiens, UniProt O15379); experiment: Inhibition of recombinant human HDAC3 using Ac-peptide as substrate preincubated for 15 mins followed by substrate addition and measured after 60 mins
[2] = AUC (0 to t) in female Balb/c mouse at 5 mg/kg, ip measured after 24 hrs by LC-MS/MS analysis; assay type: ADME, organism-based; settings: in vivo
[3] = Apparent clearance during terminal phase in female Balb/c mouse at 5 mg/kg, ip measured after 24 hrs by LC-MS/MS analysis; assay type: ADME, organism-based; settings: in vivo, read-out: CLz/F (converted)
Plasmodium falciparum [4] = experiment: Antimalarial activity against sulfadoxine-pyrimethamine and mefloquine resistant Plasmodium falciparum clinical isolate CP286 assessed as inhibition of growth incubated for 72 hrs by SYBR green I based assay; assay type: functional, organism-based
[5] = biological target: T1, NAD-dependent protein deacetylase sirtuin-2 (Homo sapiens, UniProt Q8IXJ6); experiment: Inhibition of recombinant human SIRT2 using Ac-peptide as substrate preincubated for 15 mins followed by substrate addition for 240 mins and measured after 120 mins of trypsin addition
T1 sequence (Q8IXJ6 whole entry): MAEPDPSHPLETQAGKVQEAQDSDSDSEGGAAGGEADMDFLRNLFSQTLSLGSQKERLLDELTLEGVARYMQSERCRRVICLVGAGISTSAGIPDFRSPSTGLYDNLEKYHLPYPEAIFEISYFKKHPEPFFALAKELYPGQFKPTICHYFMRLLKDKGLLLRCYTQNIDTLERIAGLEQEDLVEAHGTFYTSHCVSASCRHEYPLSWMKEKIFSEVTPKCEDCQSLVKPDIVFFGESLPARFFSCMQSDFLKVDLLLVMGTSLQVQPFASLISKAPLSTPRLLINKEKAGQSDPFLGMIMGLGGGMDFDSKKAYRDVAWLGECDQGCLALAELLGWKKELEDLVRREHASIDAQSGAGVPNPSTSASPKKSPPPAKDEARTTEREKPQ

Histone deacetylase 3, sequence (O15379 whole entry): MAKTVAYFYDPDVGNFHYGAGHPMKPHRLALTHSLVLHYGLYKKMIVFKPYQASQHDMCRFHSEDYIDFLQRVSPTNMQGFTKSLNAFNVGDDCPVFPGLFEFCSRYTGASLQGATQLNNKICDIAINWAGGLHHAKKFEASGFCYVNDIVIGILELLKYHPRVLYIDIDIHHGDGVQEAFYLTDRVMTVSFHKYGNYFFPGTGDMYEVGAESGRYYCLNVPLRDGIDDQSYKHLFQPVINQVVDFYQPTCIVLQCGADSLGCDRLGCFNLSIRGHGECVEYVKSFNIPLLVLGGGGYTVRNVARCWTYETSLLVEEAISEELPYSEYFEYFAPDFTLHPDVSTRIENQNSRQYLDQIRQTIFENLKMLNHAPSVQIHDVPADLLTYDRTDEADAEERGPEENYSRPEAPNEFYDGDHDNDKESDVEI

## Cc1ccc2c(CN[C@H]3CC[C@@H](Nc4ncc(C(=O)NO)cn4)CC3)cn(C)c2c1.Cl
Plasmodium falciparum [1]
  IC50: 29.5 nM
Histone deacetylase 3
  IC50: 23 nM
[2]
  AUC(0-t) at 24 h: 833 ng·h/mL
[3]
  CL/F: 97.7 mL/min/kg
Plasmodium falciparum [4]
  IC50: 28.4 nM
[5]
  IC50: > 10000 nM
